# Experimental data taken from ChEMBL document CHEMBL1201862, “PubChem BioAssay data set” (2004).
#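 These data come from cells grown in 96-well plates and exposed to compound for 48 hours at five concentrations. Here, GI50 denotes the concentration required for 50% inhibition of growth.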 Calls of active or inactive are those of the source. No stated cut-off is given here; in the data, active = GI50 up to about 1.1 µM and inactive = higher.
# Tests used:
# Experiment in all cases: NCI-60 cell line screen, 48 h
# [1] = system: ACHN
# [2] = system: COLO 205
# [3] = system: HCC 2998
# [4] = system: HCT-15
# [5] = system: HOP-62
# [6] = system: HOP-92
# [7] = system: MCF7
# [8] = system: MDA-MB-231
# [9] = system: MDA-MB-435
# [10] = system: MOLT-4
# [11] = system: NCI-H460
# [12] = system: OVCAR-3
# [13] = system: SNB-19
# [14] = system: SR
# [15] = system: HT-29
# [16] = system: IGROV-1
# [17] = system: Malme-3M
# [18] = system: NCI/ADR-RES
# [19] = system: OVCAR-8
# [20] = system: RXF 393
SMILES,GI50 [1],GI50 [2],GI50 [3],GI50 [4] [µM],GI50 [5],GI50 [6],GI50 [7],GI50 [8],GI50 [9],GI50 [10],GI50 [11],GI50 [12],GI50 [13],GI50 [14],GI50 [15],GI50 [16],GI50 [17],GI50 [18],GI50 [19],GI50 [20]
CC1=CC[C@@H]2[C@@H](CC[C@@]2(C)O)C(C)(C)[C@H]1CC[C@@H]1[C@@]2(C)CC[C@@H](O)C(C)(C)O[C@@H]2CC[C@]1(C)O,23.2 µM (inactive),19.4 µM (inactive),17.5 µM (inactive),18.2,23.2 µM (inactive),12.5 µM (inactive),31 µM (inactive),17.5 µM (inactive),22.3 µM (inactive),17.9 µM (inactive),17.7 µM (inactive),42.8 µM (inactive),14.2 µM (inactive),14.9 µM (inactive),,,,,,
Cc1nc2cccc([N+](=O)[O-])c2c(NCCCN(C)C)c1C,97.3 µM (inactive),22.3 µM (inactive),21.8 µM (inactive),26.5,28.9 µM (inactive),> 100 µM (inactive),23 µM (inactive),,71.4 µM (inactive),20.5 µM (inactive),24 µM (inactive),26.6 µM (inactive),> 100 µM (inactive),> 34.5 µM (inactive),19.9 µM (inactive),> 100 µM (inactive),22.2 µM (inactive),> 100 µM (inactive),36.1 µM (inactive),16.1 µM (inactive)
C[C@@H](c1ccccc1)n1c(N)c(C#N)c2ccc([N+](=O)[O-])cc2c1=O,14.9 µM (inactive),15 µM (inactive),15.5 µM (inactive),12.9,,7.13 µM (inactive),,14.9 µM (inactive),14.2 µM (inactive),,14.5 µM (inactive),,13.6 µM (inactive),2.69 µM (inactive),14.5 µM (inactive),,,7.1 µM (inactive),12 µM (inactive),
CC1=C(C(N)=O)C(c2ccncc2)C(C#N)C(=O)N1 (stereo not drawn),> 100 µM (inactive),> 100 µM (inactive),> 100 µM (inactive),> 100,> 100 µM (inactive),> 100 µM (inactive),> 100 µM (inactive),> 100 µM (inactive),> 100 µM (inactive),> 100 µM (inactive),> 100 µM (inactive),,> 100 µM (inactive),> 100 µM (inactive),,> 100 µM (inactive),,,,> 100 µM (inactive)
CCCCCCCC(CC(=O)NC(CO)C(=O)NC(CO)CC(C)C)OC(=O)CC(CCCCCCC)OC(=O)CC(CCCCCCC)OC1OC(C)C(O)C(OC2OC(C)C(O)C(O)C2OC(C)=O)C1O (stereo not drawn),15.5 µM (inactive),2.04 µM (inactive),12.5 µM (inactive),,12.9 µM (inactive),10.2 µM (inactive),10.5 µM (inactive),9.38 µM (inactive),2.75 µM (inactive),2.54 µM (inactive),4.07 µM (inactive),12.9 µM (inactive),8.26 µM (inactive),2.14 µM (inactive),3.6 µM (inactive),10.9 µM (inactive),10.9 µM (inactive),,7.35 µM (inactive),2.14 µM (inactive)
C=C(Br)C[N+]12CN3CN(CN(C3)C1)C2,> 100 µM (inactive),> 100 µM (inactive),> 100 µM (inactive),> 100,> 100 µM (inactive),> 100 µM (inactive),,> 100 µM (inactive),> 100 µM (inactive),> 100 µM (inactive),> 100 µM (inactive),> 100 µM (inactive),> 100 µM (inactive),> 100 µM (inactive),> 100 µM (inactive),> 100 µM (inactive),> 100 µM (inactive),> 100 µM (inactive),> 100 µM (inactive),> 100 µM (inactive)
